In patent US20070088414A1, “Particulate formulations for intradermal delivery of biologically active agents” (priority 2005, published 2007):

Tests used:
[1] = Lymph node penetration assay; settings: Intradermal injection, liposomes 30 minutes after avidin, nodes harvested 24 hours, sodium salt
Procedure: Avidin was purchased from Sigma, with the concentration at 10 mg/ml. Avidin was hydrated with injectable saline. A 50 μl aliquot, at a dose of 250 μg, was delivered as described.
SRB was purchased from Sigma (Cat.# S9012). SRB was selected for its high solubility, and due to the fact that it is readily visible to the naked eye and has fluorescent properties.
An LUV process was used to make the SRB-liposomes. Two basic formulations were developed—hi and low PE-biotin content. […] The liposome formulation contained the following: DSPC (94.0 mg; 119.0 μmoles); DSPG (10.3 mg; 13.2 μmoles); Chol (50.9 mg; 132.0 μmoles); and Diol Biotin (2.6 mg; 2.64 μmoles). The mixture was brought to about 20 ml with chloroform and methanol at a 10:1 ratio. Organic solvent was removed at 45° C. A thin film on a rotovap flask was hydrated in 18 ml of 0.1M SRB prepared in buffer (1 mM EDTA, 0.2% NaN3, pH=8.0). The lipid dye suspension was then extruded through a series of nucleopore membranes (5.0. 1.0, 0.8, 0.6, 0.4, 0.2, 0.1, 0.05 micron). Approximately 5 ml was saved after the 0.2, 0.1 and 0.05 micron membranes. Each of the 5 ml preps was centrifuged, and pellets washed with osmotically adjusted (physiological 310 mOSM) buffer. After the free SRB was washed away, the final liposome pellets were resuspended in the same buffer to the final volume of 1 ml. […]

[2] = Payload determination, low molecular weight substance (SRB); format: physicochemical; settings: SRB dye encapsulated in liposomes, released with 5% Triton X-100, read at 565 nm
Procedure: To determine the phospholipid concentration of liposomes, 10 μl of each liposome solution was placed in a 16×100 mm glass tube along with 0.4 ml of 10 N sulfuric acid. A set of phosphate standards was prepared from a 0.645 mM stock (Sigma P3869) which was also assayed in glass tubes alongside the liposome samples. Samples, standards and blank tubes were run in duplicate. All tubes were placed in a heating block and digested for 30 minutes at 180° C. Tubes were then removed from the heating block and cooled for 5 minutes before adding 100 μl of 9% hydrogen peroxide. All tubes were then again heated for 30 minutes at 180° C. […] All standards, samples and blanks were read at 820 nm on a spectrophotometer. Using the known standard values, a curve was generated from which phosphate concentration values can be calculated for each of the liposome samples. Phosphate concentration values are expressed as μmoles Pi/mL. […]
Sulfa rhodamine-B sodium salt (“SRB”) was used to determine payload capacity for a low molecular weight substance. […] All samples and standards were then read at 565 nm on a spectrophotometer. SRB dye payload molar concentrations were then calculated from the known standard curve. Using this procedure, the payload for SRB was determined to be about 10.956 nmoles per 50 nmoles of phosphate. […]

[3] = intravenous, 200 uL single tail vein injection
Procedure: IV delivery of free and particulate ICG was administered in a 200 uL volume in a single tail vein injection.

CCN(CC)c1ccc2c(-c3ccc(S(=O)(=O)[O-])cc3S(=O)(=O)[O-])c3ccc(=[N+](CC)CC)cc-3oc2c1.[Na+] [free SRB, Sulfa rhodamine-B sodium salt]
Visible Aggregation/Accumulation in Axillary Node ([1]; listed as Free SRB liposomes): no SRB color retention in the node
Visible Aggregation/Accumulation in Axillary Node [1]: No
payload for SRB [2]: about 10.956 nmoles per 50 nmoles of phosphate

CC1(C)C(/C=C/C=C/C=C/C=C2\N(CCCCS(=O)(=O)O)c3ccc4ccccc4c3C2(C)C)=[N+](CCCCS(=O)(=O)[O-])c2ccc3ccccc3c21 [free cardiogreen, Indocyanine Green]
accumulation across the peritoneal cavity [3]: manifested accumulation across the peritoneal cavity
